Columns and labels:
iNKT hybridoma DN32.D3 = assay: Lipid‐pulsed, washed BMDC stimulation of iNKT hybridoma DN32.D3 (IL‐2); assay type: cell-based, mouse; conditions: 10 and 1 ng agonist; up to 24 h after wash; compared with α‐GalCer
Description: The difference between the functional activity of ThrCer 6 and α‐GalCer, particularly noticeable at low concentrations, may be accounted for by differences in their bioavailability. To address this possibility, bone marrow (BM) derived DC were incubated with a range of different iNKT‐cell agonists at different concentrations overnight, then washed and incubated with fresh media for increasing lengths of time. Lipid‐pulsed DC were then used to stimulate the iNKT‐hybridoma DN32.D3 (Fig. 6A). […] The difference between the ThrCer 6 and ThrCer 7 analogs and α‐GalCer started to be evident as early as 3 h after lipid‐pulsed DC were washed (Fig. 6A).
Figure 6 Enhanced bioavailability of ThrCer 6 as compared to ThrCer and α‐GalCer. (A) Mouse BMDCs were pulsed for 6 h with 100, 10, or 1 ng/mL of indicated iNKT‐cell agonists. […] Diminished bioavailability is expressed as a percentage of the maximum DN32.D3 activation by each iNKT‐cell agonist. […] (B) IL‐2 in the supernatant from coculture of DN32.D3 with CD11c^+ cells isolated after 64 h was determined by ELISA. […] Significance was calculated between α‐GalCer and ThrCer 6. *p < 0.05, **p < 0.01, ***p < 0.001, ****p < 0.0001; Student's t‐test.
Levels of iNKT‐cell agonists, presented by CD1d on the surface of cells, were assessed by the amount of IL‐2 secreted by iNKT hybridoma DN32.D3 coincubated with the presenting cells for 17–24 h. […]

[1] = tested on: OVA‐specific CD8+ T cells; assay: OVA‐specific CD8+ T‐cell response after OVA plus lipid i.v. (H‐2Kb/OVA257–264 tetramer); assay type: in vivo, mice
Description: In order to assess the downstream effect of treatment with low concentrations of lipid in vivo, mice were injected with the model antigen OVA together with two different doses of ThrCer 6 and α‐GalCer. Seven days later, OVA‐specific CD8^+ T cells were detected in the blood by H‐2 K^b/OVA257–264 tetramer staining of CD8^+ T cells.
(A and B) Mice were given 400 μg OVA together with i.v. injection of vehicle or 10 or 750 ng of either α‐GalCer or ThrCer 6. OVA‐specific CD8^+ T cells were enumerated in the blood using tetrameric H‐2K^b/OVA257–264 flow cytometry at (A) day 7 and at (B) day 12. Each square or circle represents the data for a single mouse (n = 4–6/group). Data shown as mean ± SEM and are representative of three independent experiments. **p = 0.0012, *p = 0.0114; Student's t‐test.
Mice were bled on day 7 post immunization of lipids and peripheral blood lymphocytes (PBL) stained with tetrameric H‐2 K^b/OVA257–264 peptide complexes, as previously described 27. A representative tetramer staining is shown in Supporting Information Figure 4.

SMILES: CCCCCCCCCCCCCCCCCCCCCCCCCC(=O)N[C@@H](CO[C@H]1CC[C@H](O)[C@H](O)[C@H]1O)[C@H](O)[C@H](O)CCCCCCCCCCCCCC [ThrCer 6]
- Activation of DN32.D3 by lipid‐pulsed, washed BMDC (iNKT hybridoma DN32.D3): enhanced ability to activate DN32.D3
- Frequency of OVA‐specific CD8+ T cells, 10 ng lipid ([1]; 10 ng i.v. with 400 μg OVA, day 7, compared with 10 ng α‐GalCer): statistically significant higher frequency
- Frequency of OVA‐specific CD8+ T cells, 10 ng lipid, day 12 ([1]; 10 ng i.v. with OVA, day 12, higher frequency than α‐GalCer): persisted at day 12

— PMC4913735, “Non‐glycosidic compounds can stimulate both human and mouse iNKT cells” (European Journal of Immunology, 2016)
